Experimental data taken from PMC3985299, “Single Ascending Dose Safety and Pharmacokinetics of CDRI-97/78: First-in-Human Study of a Novel Antimalarial Drug” (Malaria Research and Treatment, 2014).

Assays:
[1] = tested on: rats; parameters: method as in printed; conditions: preclinical, used for starting dose, ref not given; cited from earlier work
[2] = tested on: multidrug resistant P. yoelii; parameters: method as in printed; conditions: multidrug resistant P. yoelii in mice; background, ref not given; cited from earlier work
[3] = tested on: healthy human volunteers; assay: Single ascending dose study: biochemical parameters (liver function tests, serum electrolytes); type: in vivo; parameters: Total serum bilirubin / Serum SGOT / Serum SGPT: unit not given here
From the text: (§1) The study was approved by the Institute's Ethics Committee. The single ascending dose study and the pharmacokinetic study are registered with Central Trial Registry of India (CTRI/2012/07/002812; CTRI/2012/07/002832). Normal healthy male volunteers in the age group of 18–45 years were invited to join the trial. A detailed informed consent process of the volunteers was undertaken and screening of the volunteers was done after obtaining informed consent. They were recruited through contacts and hospital employees were excluded. The health status of the volunteers was determined by taking medical history, physical examination, routine haematology (haemoglobin, total lymphocyte count, differential count, and platelet count), clinical biochemistry (serum glutamic oxaloacetic transaminase (SGOT), serum glutamic pyruvic transaminase (SGPT), serum bilirubin, serum creatinine, blood urea, serum electrolytes, random blood sugar, total protein, and serum lipid profile), and urine and stool analysis (routine examination and microscopy). The volunteers were asked to report to the study site after 12 hours of fasting for the blood tests. Chest X-ray and 12-lead ECG were also taken. The participants were also screened for human immunodeficiency virus (HIV) and hepatitis B. The volunteers after giving informed consent were screened. The screening process was done latest within 1 month of admission for dosing. The volunteers who fulfilled the inclusion/exclusion criteria were admitted in the CPU the night before drug administration. Standardized dinner was served at 9 pm the night prior to dosing. On day 0, baseline blood sample for biochemical and haematological examination and stool and urine samples for routine and microscopy were taken. They received the study drug, according to the randomization sequence, under supervision. The empty packaging was returned to the container. The volunteers received drug as per randomization. Breakfast was given half an hour after drug administration. Subsequently, standardized lunch and dinner were served to the volunteers. The subjects were attached to a cardiac monitor and vital HR, BP, ECG, oxygen saturation, and RR were recorded. Corrected QT interval using Fridericia's formula was calculated. Adverse events were assessed at specific time points (0.5, 1, 2, 4, 6, 8, 12, and 24 hrs after medication). Unscheduled monitoring was undertaken whenever it felt necessary. The volunteers were discharged after 24 hrs and they had to return at 48 hrs and on the 7th day for follow-up. At the end of the 7th day, they were said to have completed the study. Routine haematological and biochemical investigations were performed at 0 hr, 24 hrs after drug administration, and on day 7. The study was monitored by a Data Safety Monitoring Board.

[4] = tested on: P. cynomolgi; parameters: method as in printed; conditions: P. cynomolgi in rhesus monkeys; background, ref not given; cited from earlier work
[5] = tested on: healthy human volunteers; assay: Single ascending dose study: haematological parameters; type: in vivo; conditions: 400 mg
From the text: as §1, with “They received the study drug, according to the randomization sequence, under supervision. The empty packaging was returned to the container. The volunteers received drug as per randomization. Breakfast was given half an hour after drug administration. Subsequently, standardized lunch and dinner were served to the volunteers.” left out, “Unscheduled monitoring was undertaken whenever it felt necessary. The volunteers were discharged after 24 hrs and they had to return at 48 hrs and on the 7th day for follow-up. At the end of the 7th day, they were said to have completed the study. Routine haematological and biochemical investigations were performed at 0 hr, 24 hrs after drug administration, and on day 7.” left out

Structure (SMILES): C=C(c1ccc(OC(C)(C)COC(=O)CCC(=O)O)cc1)C1COC2(OO1)C1CC3CC(C1)CC2C3 (centres unmarked) [CDRI 97/78, Mono[2methyl2[3(1spiro[tricycle[3.3.1.13,7]decane2,3′-[1,2,4]trioxan] 6′-ylethenyl)phenoxy]propyl] ester]
- Maximum tolerated dose [1]: 100 mg/kg
- Antimalarial activity [2]: powerful antimalarial activity
- Serum Alkaline phosphatase ([3]; 80 mg (n = 6), 24 hour): 102.5 ± 30.09
- Serum SGOT ([3]; 80 mg (n = 6), 24 hour): 23.48 ± 2.88
- Serum SGPT ([3]; 80 mg (n = 6), 24 hour): 26.2 ± 6.6
- Total serum bilirubin ([3]; 80 mg (n = 6), 24 hour): 0.73 ± 0.24
- Serum Alkaline phosphatase ([3]; 80 mg (n = 6), Baseline): 95.5 ± 26.65
- Serum SGOT ([3]; 80 mg (n = 6), Baseline): 22.15 ± 6.3
- Serum SGPT ([3]; 80 mg (n = 6), Baseline): 21.88 ± 10.0
- Total serum bilirubin ([3]; 80 mg (n = 6), Baseline): 0.82 ± 0.24
- Serum Alkaline phosphatase ([3]; 80 mg (n = 6), Day 7): 106.83 ± 37.12
- Serum SGOT ([3]; 80 mg (n = 6), Day 7): 27.7 ± 6.1
- Serum SGPT ([3]; 80 mg (n = 6), Day 7): 21.8 ± 3.7
- Total serum bilirubin ([3]; 80 mg (n = 6), Day 7): 0.64 ± 0.23
- Serum Alkaline phosphatase ([3]; 160 mg (n = 6), 24 hour): 212 ± 67
- Serum SGOT ([3]; 160 mg (n = 6), 24 hour): 33.98 ± 9.69
- Serum SGPT ([3]; 160 mg (n = 6), 24 hour): 39.43 ± 8.08
- Total serum bilirubin ([3]; 160 mg (n = 6), 24 hour): 0.55 ± 0.07
- Serum Alkaline phosphatase ([3]; 160 mg (n = 6), Baseline): 211.5 ± 68.65
- Serum SGOT ([3]; 160 mg (n = 6), Baseline): 34.18 ± 7.89
- Serum SGPT ([3]; 160 mg (n = 6), Baseline): 37.21 ± 4.16
- Total serum bilirubin ([3]; 160 mg (n = 6), Baseline): 0.76 ± 0.39
- Serum Alkaline phosphatase ([3]; 160 mg (n = 6), Day 7): 207.17 ± 61.03
- Serum SGOT ([3]; 160 mg (n = 6), Day 7): 38.33 ± 8.91
- Serum SGPT ([3]; 160 mg (n = 6), Day 7): 44.5 ± 11.64
- Total serum bilirubin ([3]; 160 mg (n = 6), Day 7): 0.6 ± 0.06
- Serum Alkaline phosphatase ([3]; 320 mg (n = 6), 24 hour): 222.5 ± 34.55
- Serum SGOT ([3]; 320 mg (n = 6), 24 hour): 34.17 ± 7.76
- Serum SGPT ([3]; 320 mg (n = 6), 24 hour): 37.33 ± 8.87
- Total serum bilirubin ([3]; 320 mg (n = 6), 24 hour): 0.8 ± 0.4
- Serum Alkaline phosphatase ([3]; 320 mg (n = 6), Baseline): 242 ± 45.24
- Serum SGOT ([3]; 320 mg (n = 6), Baseline): 32.83 ± 5.15
- Serum SGPT ([3]; 320 mg (n = 6), Baseline): 33.83 ± 9.09
- Total serum bilirubin ([3]; 320 mg (n = 6), Baseline): 0.73 ± 0.52
- Serum Alkaline phosphatase ([3]; 320 mg (n = 6), Day 7): 235.83 ± 32.49
- Serum SGOT ([3]; 320 mg (n = 6), Day 7): 35 ± 8.53
- Serum SGPT ([3]; 320 mg (n = 6), Day 7): 38.33 ± 13.84
- Total serum bilirubin ([3]; 320 mg (n = 6), Day 7): 0.87 ± 0.59
- Serum Alkaline phosphatase ([3]; 400 mg (n = 6), 24 hour): 251.67 ± 47.59
- Serum SGOT ([3]; 400 mg (n = 6), 24 hour): 31.5 ± 4.5
- Serum SGPT ([3]; 400 mg (n = 6), 24 hour): 35.17 ± 4.12
- Total serum bilirubin ([3]; 400 mg (n = 6), 24 hour): 0.53 ± 0.05
- Serum Alkaline phosphatase ([3]; 400 mg (n = 6), Baseline): 232.83 ± 42
- Serum SGOT ([3]; 400 mg (n = 6), Baseline): 26.67 ± 6.62
- Serum SGPT ([3]; 400 mg (n = 6), Baseline): 29 ± 5.44
- Total serum bilirubin ([3]; 400 mg (n = 6), Baseline): 0.52 ± 0.04
- Serum Alkaline phosphatase ([3]; 400 mg (n = 6), Day 7): 242.83 ± 34.82
- Serum SGOT ([3]; 400 mg (n = 6), Day 7): 32.33 ± 8.87
- Serum SGPT ([3]; 400 mg (n = 6), Day 7): 38 ± 12.95
- Total serum bilirubin ([3]; 400 mg (n = 6), Day 7): 0.55 ± 0.08
- Serum Alkaline phosphatase ([3]; 500 mg (n = 6), 24 hour): 313 ± 124.5
- Serum SGOT ([3]; 500 mg (n = 6), 24 hour): 31.5 ± 6.02
- Serum SGPT ([3]; 500 mg (n = 6), 24 hour): 34.83 ± 11.07
- Total serum bilirubin ([3]; 500 mg (n = 6), 24 hour): 0.52 ± 0.04
- Serum Alkaline phosphatase ([3]; 500 mg (n = 6), Baseline): 321.17 ± 151
- Serum SGOT ([3]; 500 mg (n = 6), Baseline): 31.33 ± 8.76
- Serum SGPT ([3]; 500 mg (n = 6), Baseline): 32.83 ± 11.5
- Total serum bilirubin ([3]; 500 mg (n = 6), Baseline): 0.52 ± 0.04
- Serum Alkaline phosphatase ([3]; 500 mg (n = 6), Day 7): 339.67 ± 184.25
- Serum SGOT ([3]; 500 mg (n = 6), Day 7): 34 ± 6.00
- Serum SGPT ([3]; 500 mg (n = 6), Day 7): 35.33 ± 10.56
- Total serum bilirubin ([3]; 500 mg (n = 6), Day 7): 0.53 ± 0.05
- Serum Alkaline phosphatase ([3]; 600 mg (n = 6), 24 hour): 275.83 ± 61.29
- Serum SGOT ([3]; 600 mg (n = 6), 24 hour): 30.33 ± 6.74
- Serum SGPT ([3]; 600 mg (n = 6), 24 hour): 30.5 ± 8.46
- Total serum bilirubin ([3]; 600 mg (n = 6), 24 hour): 0.8 ± 0.59
- Serum Alkaline phosphatase ([3]; 600 mg (n = 6), Baseline): 272.5 ± 66.71
- Serum SGOT ([3]; 600 mg (n = 6), Baseline): 31.17 ± 6.3
- Serum SGPT ([3]; 600 mg (n = 6), Baseline): 30 ± 7.16
- Total serum bilirubin ([3]; 600 mg (n = 6), Baseline): 0.8 ± 0.54
- Serum Alkaline phosphatase ([3]; 600 mg (n = 6), Day 7): 274 ± 75.17
- Serum SGOT ([3]; 600 mg (n = 6), Day 7): 31.33 ± 5.78
- Serum SGPT ([3]; 600 mg (n = 6), Day 7): 33.17 ± 10.53
- Total serum bilirubin ([3]; 600 mg (n = 6), Day 7): 0.82 ± 0.59
- Serum Alkaline phosphatase ([3]; 700 mg (n = 2), 24 hour): 254 ± 56.57
- Serum SGOT ([3]; 700 mg (n = 2), 24 hour): 40 ± 4.24
- Serum SGPT ([3]; 700 mg (n = 2), 24 hour): 46.5 ± 4.95
- Total serum bilirubin ([3]; 700 mg (n = 2), 24 hour): 0.6 ± 0.14
- Serum Alkaline phosphatase ([3]; 700 mg (n = 2), Baseline): 261.5 ± 50.2
- Serum SGOT ([3]; 700 mg (n = 2), Baseline): 35.5 ± 0.71
- Serum SGPT ([3]; 700 mg (n = 2), Baseline): 46 ± 5.66
- Total serum bilirubin ([3]; 700 mg (n = 2), Baseline): 0.6 ± 0.14
- Serum Alkaline phosphatase ([3]; 700 mg (n = 2), Day 7): 260.5 ± 44.55
- Serum SGOT ([3]; 700 mg (n = 2), Day 7): 34.5 ± 0.71
- Serum SGPT ([3]; 700 mg (n = 2), Day 7): 40 ± 11.31
- Total serum bilirubin ([3]; 700 mg (n = 2), Day 7): 0.55 ± 0.07
- Serum sodium and serum potassium values vs normal physiological ranges ([3]; all time points, all groups): None of the volunteers had values outside the normal physiological ranges
- Serum bilirubin, SGOT and SGPT, intergroup comparisons ([3]; any time point of measurement, 80-700 mg and placebo): no significant difference
- Antimalarial activity [4]: powerful antimalarial activity
- Hemoglobin ([5]; 7th day): 14.35 ± 1.10 gm%
- Hemoglobin ([5]; 24 hr): 14.92 ± 0.94 gm%
- Hemoglobin ([5]; baseline): 14.25 ± 0.75 gm%
